According to patent US11806350B2, “Prevention and/or treatment of CNS disorders” (ILDONG PHARMACEUTICAL CO., LTD., priority 2020, dated 2023):

How the values were obtained:
[1] = target: T1, Human recombinant adenosine A1 receptors (Homo sapiens, UniProt P30542); test: Human adenosine A1 receptor binding assay ([3H]DPCPX); conditions: membranes of CHO-K1 cells, 1 nM [3H]DPCPX, 90 minutes at 25° C.; read-out: hAl Ki
T1 construct: expressed in transfected cells; host or cells: CHO-K1 cells (membrane preparation)
T1 sequence (P30542 1-326): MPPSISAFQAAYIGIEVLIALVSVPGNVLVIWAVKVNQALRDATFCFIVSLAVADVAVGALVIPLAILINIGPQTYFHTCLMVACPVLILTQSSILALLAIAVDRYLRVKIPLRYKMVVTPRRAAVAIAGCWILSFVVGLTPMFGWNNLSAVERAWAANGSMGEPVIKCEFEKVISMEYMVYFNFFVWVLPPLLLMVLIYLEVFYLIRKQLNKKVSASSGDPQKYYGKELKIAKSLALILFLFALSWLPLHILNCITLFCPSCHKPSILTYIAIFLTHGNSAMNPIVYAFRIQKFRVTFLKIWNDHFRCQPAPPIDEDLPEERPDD
Method: 2.1 Human Adenosine A1 Receptor Binding Assay
Test compound is weighed, dissolved in DMSO to make a stock solution of 10 mM, diluted with DMSO to prepare working solutions, then 100-fold diluted to the indicated concentrations. Human recombinant adenosine A1 receptors expressed in CHO-K1 cells were used to prepare membranes in incubation buffer (20 mM HEPES (4-(2-hydroxyethyl)-1-piperazineethanesulfonic acid) pH 7.4, 10 mM MgCl2, 100 mM NaCl). Test compound or vehicle (2.2 μL) was added in 200 μL of membranes and incubated with 20 μL of 1 nM [^3H] DPCPX (8-cyclopentyl-1,3-dipropylxanthine) for 90 minutes at 25° C. Non-specific binding was estimated in the presence of 100 μM R(−)-PIA ((R)—N-(1-methyl-2-phenylethyl)adenosine). The incubation was stopped by vacuum filtration onto 0.3% PEI (polyethylenimine) presoaked GF/B filters using a harvester followed by four washes with ice-cold 50 mM Tris-HCl, pH 7.4, and the radioactivity on GF/B filtermats counted in a scintillation counter (PerkinElmer Topcount™) to determine [^3H] DPCPX specifically bound. Final concentration of vehicle DMSO is 1%.
(§1) Data is fitted using the non-linear curve fitting routines in Meth-IQ software (ID Business Solutions Ltd., UK). IC50 is converted to Ki by Cheng-Prusoff equation: Ki=IC50/(1+[L]/KD) where [L] is concentration of radiolabeled ligand used in the assay.

[2] = system: unilateral 6-hydroxydopamine (6-OHDA) lesion animal model of Parkinson's Disease; test: Cylinder test (forelimb use asymmetry) in 6-OHDA lesioned rats; type: in vivo, Wistar Han rats
Method: (§2) To generate animal model of Parkinson's Disease (PD), a number of 67 female Wistar Han rats of approximately 9 weeks of age received unilateral 6-hydroxydopamine (6-OHDA) lesion. To induce the 6-OHDA lesion, each of the animals received one injection with 2 μl (4 μg/μl) in the medial forebrain bundle (MFB). 6-OHDA is widely used to lesion the nigrostriatal dopaminergic system as a model of PD.
(§3) Three weeks after the injections, cylinder test for the evaluation of locomotor asymmetry was performed to determine the efficacy of the 6-OHDA lesion (4 animals died before testing). Based on the results of the cylinder test, 6-OHDA lesioned animals were further included in the study. In compound standalone testing groups (B+C), animals (n=52) were received L-DOPA (Levodopa or L-3,4-dihydroxyphenylalanine) priming (2 animals died before group allocation). […]
Cylinder test was performed on treatment days (4 days after end of L-DOPA priming) with all animals used for testing. […] Each animal was individually evaluated for 5 minutes. The number of contacts on the cylinder wall with the right paw, left and both paws simultaneously were counted. The results were given in percentage and calculating is done as follows: the test total sum of contacts on the cylinder wall with the right paw, left paw and both totaled 100%, based on this, a percentage value for each finding was calculated (Araujo, 2013).

[3] = target: T2, Human recombinant adenosine A2A receptors (Homo sapiens, UniProt P29274); test: Human adenosine A2A receptor binding assay ([3H]CGS-21680); conditions: membranes of HEK-293 cells, 50 nM [3H]CGS-21680, 90 minutes at 25° C.; read-out: hA2A Ki
T2 construct: expressed in transfected cells; host or cells: HEK-293 cells (membrane preparation)
Method: 2.2 Human Adenosine A2A Receptor Binding Assay
Test compound is weighed, dissolved in DMSO to make a stock solution of 10 mM, diluted with DMSO to prepare working solutions, then 100-fold diluted to the indicated concentrations. Human recombinant adenosine A2A receptors expressed in HEK-293 cells were used to prepare membranes in incubation buffer (50 mM Tris-HCl, pH 7.4, 10 mM MgCl2, 1 mM EDTA, 2 U/ml Adenosine Deaminase). Test compound or vehicle (2.2 μL) was added in 200 μL of membranes and incubated with 20 μL of 50 nM [^3H] […] Non-specific binding was estimated in the presence of 50 μM NECA (5′-N-ethylcarboxamidoadenosine). The incubation was stopped by vacuum filtration onto 0.3% PEI (polyethylenimine) presoaked GF/B filters using a harvester followed by four washes with ice-cold 50 mM Tris-HCl, pH 7.4, and the radioactivity on GF/B filtermats counted in a scintillation counter (PerkinElmer TOPCOUNT™) to determine [^3H] […] Final concentration of vehicle DMSO is 1%.
as §1

[4] = system: unilateral 6-hydroxydopamine (6-OHDA) lesion animal model of Parkinson's Disease; test: Axial, limb and orolingual abnormal involuntary movement scores (ALO AIMs) in 6-OHDA lesioned, L-DOPA primed rats; type: in vivo, Wistar Han rats; conditions: after 4 days L-DOPA priming wash out; per oral (1-30 mg/kg) or intranasal (0.3-10 mg/kg); FIG. 2B
Method: as §2
as §3, with “allocation). Animals (n=11) not showing symptoms were eliminated without any further administration of test compounds or tissue collection.” for “allocation).”
ALO test was performed on treatment days (4 days after end of L-DOPA priming) with all animals used for the compound stand alone testing. ALO AIMs were scored starting 5 min […] after the vehicle, L-DOPA/Benserazide and IN administration of the test compound, and 2h (+/−5 min) after PO administration of the test compound and every 20 min thereafter for 3 h. […]
ALO AIMs were scored for 1 min, every 20 min for 180 min. […]

T2 sequence (P29274 whole entry): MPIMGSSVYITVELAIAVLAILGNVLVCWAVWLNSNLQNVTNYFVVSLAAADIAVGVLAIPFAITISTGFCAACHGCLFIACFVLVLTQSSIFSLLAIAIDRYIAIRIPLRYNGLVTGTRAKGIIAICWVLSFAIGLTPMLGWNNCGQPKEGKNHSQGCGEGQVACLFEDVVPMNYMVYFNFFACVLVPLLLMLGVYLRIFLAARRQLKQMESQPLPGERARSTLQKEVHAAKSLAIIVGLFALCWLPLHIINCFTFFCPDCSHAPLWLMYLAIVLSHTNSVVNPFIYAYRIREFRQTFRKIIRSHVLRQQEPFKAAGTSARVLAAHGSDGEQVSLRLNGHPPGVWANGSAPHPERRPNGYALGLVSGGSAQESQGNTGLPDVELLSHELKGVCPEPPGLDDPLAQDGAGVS

| Ki [1] [nM] | Ki [3] [nM] | Compound | contralateral limb usage in cylinder test ([2]; IN route and PO route, compared to the vehicle treated group, FIGS. 3A, 3B) | contralateral limb usage in cylinder test, intranasal compared to PO administration ([2]; intranasal administration compared to the PO administration group) | L-DOPA/Benserazide induced dyskinesia-like side effects (ALO AIM scores) [4] |
| --- | --- | --- | --- | --- | --- |
| 1000 to 10000 | 200 to 1000 | N#Cc1cncc(-c2nc(N)nc3c2cnn3Cc2c(F)cccc2F)c1 [Compound 233, 5-(6-amino-1-(2,6-difluorobenzyl)-1H-pyrazolo[3,4-d]pyrimidine-4-yl)nicotinonitrile] |  |  |  |
| 1000 to 10000 | 200 to 1000 | N#Cc1cc(-c2nc(N)nc3c2cnn3Cc2c(F)cccc2F)ccn1 [Compound 234, 4-[6-amino-1-[(2,6-difluorophenyl)methyl]pyrazolo[3,4-d]pyrimidine-4-yl]pyridine-2-carbonitrile] |  |  |  |
| 100 to 1000 | < 20 | N#Cc1ccnc(-c2nc(N)nc3c2cnn3Cc2ccc(N)c(C(F)(F)F)c2)c1 [Compound 235, 2-[6-amino-1-[[4-amino-3-(trifluoromethyl)phenyl]methyl]pyrazolo[3,4-d]pyrimidine-4-yl]pyridine-4-carbonitrile] |  |  |  |

| Compound | Ki [1] [nM] | Ki [3] [nM] | contralateral limb usage in cylinder test ([2]; IN route and PO route, compared to the vehicle treated group, FIGS. 3A, 3B) | contralateral limb usage in cylinder test, intranasal compared to PO administration ([2]; intranasal administration compared to the PO administration group) | L-DOPA/Benserazide induced dyskinesia-like side effects (ALO AIM scores) [4] |
| --- | --- | --- | --- | --- | --- |
| N#Cc1cccc(-c2nc(N)nc3c2cnn3Cc2ccc(N)c(C(F)(F)F)c2)c1 [Compound 210, 3-(6-amino-1-(4-amino-3-(trifluoromethyl)benzyl)-1H-pyrazolo[3,4-d]pyrimidine-4-yl)benzonitrile] | ≤ 100 | < 20 | concentration related trend towards increased contralateral limb usage | more pronounced concentration related trend | did not induce L-DOPA/Benserazide induced dyskinesia-like side effects |
